Each structure is given as a SMILES string. Structures can show the parent of a compound that is named as a salt.

One may read the IC50 as the concentration at which inhibition is half-maximal. A low value points to greater potency in that assay.

The first test deals with Plasmodium falciparum parasite. Briefly: Whole cell assay: whole cell activity against the parasite. It counts as cell-based.
Conditions: not given
From the text:
Compounds can be evaluated for whole cell actvity against the Plasmadium falciparum parasite according to the procedure described in Sijwali S. and Rosenthal P. J., (2004) Proceedings of the National Academy of Sciences of the United States of America (PNAS) 101(13), 4384-4389 (see in particular "Measurement of Parasite Growth rates and Inhibitor Sensitivity" on page 4385); IC50 values can be calculated as described in Singh A. and Rosenthal P. J., (2001) Antimicrobial Agents and Chemotherapy 45(3), 949-951 (see in particular page 950, first column); synchronised parasites can be prepared as described in Divo A. A. et al., (1985) Protozool. 32, 59-64. 3) In vitro models to evaluate activity against bone metastasis
Take `CN1CCN(C2CCN(Cc3ccc(C(=O)NN(c4nc(C#N)ncc4Cl)C4CCCCC4)cc3)CC2)CC1` [Example 40, N'-(5-chloro-2-cyano-4-pyrimidinyl)-N'-cyclohexyl-4-{[4-(4-methyl-1-piperazinyl)-1-piperidinyl]methyl}benzohydrazide]: the IC50 lay within 2.5 to 15 nM.

The test is the same for the next values; noted with them: Plasmodium falciparum.
`CN1CCC(CN2CCN(Cc3ccc(C(=O)NN(c4nc(C#N)ncc4Br)C4CCOCC4)cc3)CC2)CC1` [Example 30, N'-(5-Bromo-2-cyano-4-pyrimidiny)-4-({4-[(1-methyl-4-piperidinyl)methyl]-1-piperazinyl}methyl)-N'-(tetrahydro-2H-pyran-4-yl)benzohydrazide trifluoroacetate] yielded an IC50 of 15 to 150 nM.
For `CN1CCCC(CN2CCN(Cc3ccc(C(=O)NN(c4nc(C#N)ncc4Br)C4CCOCC4)cc3)CC2)C1` (stereo not drawn) [Example 31, N'-(5-Bromo-2-cyano-4-pyrimidinyl)-4-({4-[(1-methyl-3-pipendinyl)methyl]-1-piperazinyl}methyl)-N'-(tetrahydro-2H-pyran-4-yl)benzohydrazide trifluoroacetate], the concentration for half-maximal inhibition (IC50) is 15 to 150 nM.
The same measure, in the same setting: under `CN1CCN(C(=O)C2CCN(Cc3ccc(C(=O)NN(c4nc(C#N)ncc4Br)C4CCOCC4)cc3)CC2)CC1` [Example 32, N'-(5-Bromo-2-cyano-4-pyrimidinyl)-4-({4-[(4-methyl-1-piperazinyl)carbonyl]-1-piperidinyl}methyl)-N'-(tetrahydro-2H-pyran-4-yl)benzohydrazide trifluoroacetate] stands 15 to 150 nM.
Same read-out and setting: under `N#Cc1ncc(Br)c(N(NC(=O)c2ccc(CN3CC(N4CCCC4)C3)cc2)C2CCOCC2)n1` [Example 33, N'-(5-bromo-2-cyano-4-pyrimidinyl)-4-{[3-(1-pyrrolidinyl)-1-azetidinyl]methyl}-N'-(tetrahydro-2H-pyran-4-yl)benzohydrazide trifluoroacetate] stands 15 to 150 nM.
On to `CN1CCN(C2CCN(Cc3ccc(C(=O)NN(c4nc(C#N)ncc4Cl)C4CCOCC4)cc3)CC2)CC1` [Example 34, N'-(5-Chloro-2-cyano-4-pyrimidinyl)-4-{[4-(4-methyl-1-piperazinyl)-1-piperidinyl]methyl}-N'-(tetrahydro-2H-pyran-4-yl)benzohydrazide trifluoroacetate], for which the half-maximal inhibitory concentration (IC50) lay within 2.5 to 15 nM.
The same measure, in the same setting: under `CN1CCC(CN2CCN(Cc3ccc(C(=O)NN(c4nc(C#N)ncc4Cl)C4CCOCC4)cc3)CC2)CC1` [Example 35, N'-(5-Chloro-2-cyano-4-pyrimidinyl)-4-({4-[(1-methyl-4-piperidiny)methyl]-1-piperazinyl}methyl)-N'-(tetrahydro-2H-pyran-4-yl)benzohydrazide trifluoroacetate] stands 15 to 150 nM; under `CN1CCN(Cc2ccc(-c3ccc(C(=O)NN(c4nc(C#N)ncc4Br)C4CCCCC4)cn3)cc2)CC1` [Example 44, N'-(5-bromo-2-cyano-4-pyrimidinyl)-N'-cyclohexyl-6-{4-[(4-methyl-1-piperazinyl)methyl]phenyl}-3-pyridinecarbohydrazide trifluoroacetate], 15 to 150 nM; under `CN1CCN(Cc2ccc(-c3cncc(C(=O)NN(c4nc(C#N)ncc4Br)C4CCCC4)c3)cc2)CC1` [Example 45, N'-(5-bromo-2-cyano-4-pyrimidinyl)-N'-cyclopentyl-5-{4-[(4-methyl-1-piperazinyl)methyl]phenyl}-3-pyridinecarbohydrazide trifluoroacetate], 15 to 150 nM.
On the same count and under the same terms, the same measure for `CN1CCN(Cc2ccc(-c3ccc(C(=O)NN(c4nc(C#N)ncc4Br)C4CCCC4)cn3)cc2)CC1` [Example 46, N'-(5-bromo-2-cyano-4-pyrimidinyl)-N'-cyclopentyl-6-{4-[(4-methyl-1-piperazinyl)methyl]phenyl}-3-pyridinecarbohydrazide trifluoroacetate]: 2.5 to 15 nM; for `CN1CCN(Cc2cccc(-c3cncc(C(=O)NN(c4nc(C#N)ncc4Br)C4CCCCC4)c3)c2)CC1` [Example 47, N'-(5-bromo-2-cyano-4-pyrimidinyl)-N'-cyclohexyl-5-{3-[(4-methyl-1-piperazinyl)methyl]phenyl}-3-pyridinecarbohydrazide trifluoroacetate]: 2.5 to 15 nM.
On to `CN1CCN(C2CCN(Cc3ccc(C(=O)NN(c4nc(C#N)ncc4Br)C4CCN(C(=O)OCc5ccccc5)CC4)cc3)CC2)CC1` [Example 48, Phenylmethyl 4-{1-(5-bromo-2-cyano-4-pyrimidinyl)-2-[(4-{[4-(4-methyl-1-piperazinyl)-1-piperidinyl]methyl}phenyl)carbonyl]hydrazino}-1-piperidinecarboxylate triflouroacetate], for which the IC50 lay within 15 to 150 nM.
`CC(=O)N1CCC(N(NC(=O)c2ccc(CN3CCC(C(=O)N4CCN(C)CC4)CC3)cc2)c2nc(C#N)ncc2Br)CC1` [Example 49, N'-(1-acetyl-4-piperidinyl)-N'-(5-bromo-2-cyano-4-pyrimidinyl)-4-({4-[(4-methyl-1-piperazinyl)carbonyl]-1-piperidinyl}methyl)benzohydrazide trifluoroacetate] gave an IC50 of 15 to 150 nM.
The same measure, in the same setting: under `CN1CCN(Cc2ccc(C(=O)NN(c3nc(C#N)ncc3Cl)C3CCCCC3)cc2)CC1` [Example 51, N'-(5-chloro-2-cyano-4-pyrimidinyl)-N'-cyclohexyl-4-[(4-methyl-1-piperazinyl)methyl]benzohydrazide trifluoroacetate] stands 15 to 150 nM; under `CN1CCN(c2ccc(C(=O)NN(c3nc(C#N)ncc3Cl)C3CCCC3)cc2)CC1` [Example 52, N'-(5-chloro-2-cyano-4-pyrimidinyl)-N'-cyclopentyl-4-(4-methyl-1-piperazinyl)benzohydrazide trifluoroacetate], 15 to 150 nM.
For the molecule `CN(Cc1ccc(C(=O)NN(c2nc(C#N)ncc2Cl)C2CCCC2)cc1)C1CCCCC1` [Example 53, N'-(5-chloro-2-cyano-4-pyrimidinyl)-4-{[cyclohexyl(methyl)amino]methyl}-N'-cyclopentylbenzohydrazide trifluoroacetate], the IC50 lay within 2.5 to 15 nM.
On the same count and under the same terms, the same measure for `CN(C)Cc1ccc(C(=O)NN(c2nc(C#N)ncc2Cl)C2CCCC2)cc1` [Example 54, N'-(5-chloro-2-cyano-4-pyrimidinyl)-N'-cyclopentyl-4-[(dimethylamino)methyl]benzohydrazide trifluoroacetate]: 15 to 150 nM.
On to `CCCN(C)Cc1ccc(C(=O)NN(c2nc(C#N)ncc2Cl)C2CCCC2)cc1` [Example 55, N'-(5-chloro-2-cyano-4-pyrlmidinyl)-N'-cycyopentyl-4-{[methyl(propyl)amino]methyl}benzohydrazide trifluoroacetate], for which the IC50 was 15 to 150 nM.
The same measure, in the same setting: the same measure for `CCCCCCN(C)Cc1ccc(C(=O)NN(c2nc(C#N)ncc2Cl)C2CCCC2)cc1` [Example 56, N'-(5-chloro-2-cyano-4-pyrimidinyl)-N'-cyclopentyl-4-{[hexyl(methyl)amino]methyl}benzohydrazide trifluoroacetate]: 15 to 150 nM; for `CCCCN(C)Cc1ccc(C(=O)NN(c2nc(C#N)ncc2Cl)C2CCCC2)cc1` [Example 57, 4-{[butyl(methyl)amino]methyl}-N'-(5-chloro-2-cyano-4-pyrimidinyl)-N'-cyclopentylbenzohydrazide trifluoroacetate]: 15 to 150 nM; for `CN(CCO)Cc1ccc(C(=O)NN(c2nc(C#N)ncc2Cl)C2CCCC2)cc1` [Example 58, N'-(5-chloro-2-cyano-4-pyrimidinyl)-N'-cyclopentyl-4-{[(2-hydroxyethy)(methyl)amino]methyl}benzohydrazide trifluoroacetate]: 15 to 150 nM.
The same measure, in the same setting: under `CN(CCC(O)c1ccccc1)Cc1ccc(C(=O)NN(c2nc(C#N)ncc2Cl)C2CCCC2)cc1` (stereo not drawn) [Example 59, N'-(5-chloro-2-cyano-4-pyrimidinyl)-N'-cyclopentyl-4-{[(3-hydroxy-3-phenylpropyl)(methyl)amino]methyl}benzohydrazide trifluoroacetate] stands 15 to 150 nM; under `CN(CC(=O)N(C)C)Cc1ccc(C(=O)NN(c2nc(C#N)ncc2Cl)C2CCCC2)cc1` [Example 60, N^2-[(4-{[2-(5-chloro-2-cyano-4-pyrimidinyl)-2-cyclopentylhydrazino]carbonyl}phenyl)methyl]-N^1,N^1,N^2-trimethylglycinamide trifluoroacetate], 15 to 150 nM.
`CN(CCC1OCCO1)Cc1ccc(C(=O)NN(c2nc(C#N)ncc2Cl)C2CCCC2)cc1` [Example 61, N'-(5-chloro-2-cyano-4-pyrimidinyl)-N'-cyclopentyl-4-{[[2-(1,3-dioxolan-2-yl)ethyl](methyl)amino]methyl}benzohydrazide trifluoroacetate] gave an IC50 of 15 to 150 nM.
On the same count and under the same terms, under `CN(CCc1ccccc1)Cc1ccc(C(=O)NN(c2nc(C#N)ncc2Cl)C2CCCC2)cc1` [Example 62, N'-(5-chloro-2-cyano-4-pyrimidinyl)-N'-cyclopentyl-4-{[methyl(2-phenylethyl)amino]methyl}benzohydrazide trifluoroacetate] stands 15 to 150 nM; under `CN(CCCc1ccccc1)Cc1ccc(C(=O)NN(c2nc(C#N)ncc2Cl)C2CCCC2)cc1` [Example 64, N'-(5-chloro-2-cyano-4-pyrimidinyl)-N'-cyclopentyl-4-{[methyl(3-phenylpropyl)amino]methyl}benzohydrazide trifluoroacetate], 15 to 150 nM.

The test is the same for the next values; noted with them: dihydrochloride.
`CN1CCN(C2CCN(Cc3ccc(C(=O)NN(c4nc(C#N)ncc4Cl)C4CCCCC4)cc3)CC2)CC1` [Example 41, N'-(5-chloro-2-cyano-4-pyrimidinyl)-N'-cyclohexyl-4-{[4-(4-methyl-1-piperazinyl)-1-piperidinyl]methyl}benzohydrazide dihydrochloride] yielded an IC50 of 1 to 2.5 nM.

The record behind these values is EP2030621A1, “Novel substituted pyrimidines as cysteine protease inhibitors” (GLAXO GROUP LIMITED, priority 2007, dated 2009).
